Assay results from ChEMBL document CHEMBL1201862, “PubChem BioAssay data set” (2004).
Calls of active or inactive are those of the source.

How the values were obtained:
H4 = test: Luminescence Cell-Based Dose Response HTS to Identify Activators of 5'UTR Stem-Loop Driven Prion Protein mRNA Translation in H4 Neuroglioblastoma Cells. [Related pubchem assays: 1829 (Project Summary), 1814 (Primary HTS)]; format: functional; conditions: Homo sapiens
[1] = target: T1, Rac GTPase-activating protein 1 (Homo sapiens, UniProt Q9H0H5); test: MgcRacGAP GTPase-activating activity inhibitors, confirmation, biochemical, ADP Hunter fluorescence, primary and confirmatory (AID 624330); format: functional
T1 sequence (Q9H0H5 whole entry): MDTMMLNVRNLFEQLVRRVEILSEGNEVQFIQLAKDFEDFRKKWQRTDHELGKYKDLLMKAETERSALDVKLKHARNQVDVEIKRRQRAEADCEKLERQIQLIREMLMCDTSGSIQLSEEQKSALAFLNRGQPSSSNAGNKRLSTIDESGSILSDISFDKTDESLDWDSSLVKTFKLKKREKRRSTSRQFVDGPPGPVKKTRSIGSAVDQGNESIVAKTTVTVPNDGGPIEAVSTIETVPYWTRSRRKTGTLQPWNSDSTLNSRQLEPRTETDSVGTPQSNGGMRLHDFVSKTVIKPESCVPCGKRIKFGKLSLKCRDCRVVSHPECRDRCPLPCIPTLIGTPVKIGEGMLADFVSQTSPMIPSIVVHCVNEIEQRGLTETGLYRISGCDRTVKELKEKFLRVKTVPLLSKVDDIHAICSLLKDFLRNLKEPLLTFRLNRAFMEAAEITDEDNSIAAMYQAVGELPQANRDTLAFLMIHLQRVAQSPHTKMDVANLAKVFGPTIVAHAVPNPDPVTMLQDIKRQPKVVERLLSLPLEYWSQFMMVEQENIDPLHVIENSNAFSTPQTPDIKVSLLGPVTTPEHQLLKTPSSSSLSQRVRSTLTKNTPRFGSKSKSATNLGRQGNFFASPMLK

[2] = target: FAD-linked sulfhydryl oxidase ALR (Homo sapiens, UniProt P55789); test: inhibitors of human ALR sulfhydryl oxidase, dose response, biochemical, H2O2 detection, luminescence, cherry-pick (AID 493248)
Sequence of FAD-linked sulfhydryl oxidase ALR (P55789 whole entry): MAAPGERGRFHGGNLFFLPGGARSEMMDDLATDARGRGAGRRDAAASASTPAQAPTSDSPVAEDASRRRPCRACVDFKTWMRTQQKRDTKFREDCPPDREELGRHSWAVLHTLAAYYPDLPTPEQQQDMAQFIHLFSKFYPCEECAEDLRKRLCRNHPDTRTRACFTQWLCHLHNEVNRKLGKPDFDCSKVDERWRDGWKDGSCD

[3] = HeLa cell cytotoxicity, dose response, cytotoxicity control for MgcRacGAP inhibitor project (AID 624300); format: functional
[4] = THP-1 cell cytotoxicity, dose response, cytotoxicity control for non-replicating M. tuberculosis project (AID 489025); format: functional
[5] = Luminescence Cell-Based Dose Response HTS to Identify Activators of Luciferase Translation or Activity in H4 […] Cells. [Related pubchem assays: 1829 (Project Summary), 1814 (Primary HTS)]; format: functional
[6] = Vero E6 cell cytotoxicity, dose response, cytotoxicity control for non-replicating M. tuberculosis project, secondary assay (AID 492998); format: functional, VeroE6; conditions: Vero C1008
[7] = target: Heat shock protein HSP 90-alpha (Homo sapiens, UniProt P07900); format: functional, organism-based
[8] = Luminescence Cell-Based Dose Confirmation HTS to Identify Activators of 5'UTR Stem-Loop Driven Alpha-Synuclein mRNA Translation in H4 Neuroglioblastoma Cells. [Related pubchem assays: 1829 (Project Summary), 1814 (Primary HTS)]; format: functional
cells [9] = format: functional
[10] = A549 cell cytotoxicity, dose response, cytotoxicity control, plate reader, cherry-pick, antagonist series (AID 743412); format: functional, cell-based
[11] = LGR2 antagonists, dose response, cell-based, HEK293, CRE-luciferase reporter, cherry pick, set 2 (AID 743343); format: functional;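 note: transfected cells were stimulated with diluted bursicon conditioned medium after compound addition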
[12] = MC4R antagonists, dose response, counter-screen for LGR2 antagonist project, cell-based, plate reader, cherry pick (AID 743444); format: functional;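 note: transfected HEK 293 cells stimulated with alpha-MSH peptide; potency of inhibitors of the alpha-MSH evoked signal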
[13] = inhibitors of firefly luciferase expression or activity, dose response, H4 neuroglioma cells, luminescence (AID 1990); format: functional, cell-based
[14] = inhibitors of SNCA 5'UTR-driven reporter translation, confirmation, H4 neuroglioma cells, luminescence (AID 1988); format: functional, cell-based
Albumin = Albumin (Bos taurus, UniProt P02769); test: Counterscreen for inhibitors of T-cell receptor (TCR)-CD3 interaction: Fluorescence-based biochemical high throughput dose response assay to identify inhibitors of T-cell receptor (TCR)-CD3 interaction using a TAMRA-labeled BSA probe.; format: functional
Sequence of Albumin (P02769 whole entry): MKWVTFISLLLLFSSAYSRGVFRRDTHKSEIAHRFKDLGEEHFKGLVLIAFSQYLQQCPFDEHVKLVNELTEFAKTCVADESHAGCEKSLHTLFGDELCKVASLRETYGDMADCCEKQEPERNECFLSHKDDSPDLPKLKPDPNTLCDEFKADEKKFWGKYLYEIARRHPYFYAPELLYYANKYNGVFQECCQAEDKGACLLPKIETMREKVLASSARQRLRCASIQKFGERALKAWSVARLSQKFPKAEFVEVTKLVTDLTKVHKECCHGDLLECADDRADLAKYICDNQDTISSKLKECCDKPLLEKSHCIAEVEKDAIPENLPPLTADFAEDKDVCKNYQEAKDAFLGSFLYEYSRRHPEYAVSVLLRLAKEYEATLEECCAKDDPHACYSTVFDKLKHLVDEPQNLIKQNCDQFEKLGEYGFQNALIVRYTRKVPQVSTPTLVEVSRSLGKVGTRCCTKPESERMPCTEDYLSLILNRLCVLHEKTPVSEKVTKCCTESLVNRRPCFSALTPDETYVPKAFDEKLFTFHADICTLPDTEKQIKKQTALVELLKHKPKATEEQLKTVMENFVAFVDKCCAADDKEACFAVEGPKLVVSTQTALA

[15] = Luminescence Cell-Based Dose Response HTS to Identify Inhibitors of 5'UTR Stem-Loop Driven Prion Protein mRNA Translation in H4 Neuroglioblastoma Cells. [Related pubchem assays: 1827 (Project Summary), 1813 (Primary HTS)]; format: functional
[16] = target: Mitogen-activated protein kinase 10 (Homo sapiens, UniProt P53779); test: Dose response biochemical screening assay for inhibitors of c-Jun N-Terminal Kinase 3 (JNK3). [Related pubchem assays: 746 ]
Sequence of Mitogen-activated protein kinase 10 (P53779 whole entry): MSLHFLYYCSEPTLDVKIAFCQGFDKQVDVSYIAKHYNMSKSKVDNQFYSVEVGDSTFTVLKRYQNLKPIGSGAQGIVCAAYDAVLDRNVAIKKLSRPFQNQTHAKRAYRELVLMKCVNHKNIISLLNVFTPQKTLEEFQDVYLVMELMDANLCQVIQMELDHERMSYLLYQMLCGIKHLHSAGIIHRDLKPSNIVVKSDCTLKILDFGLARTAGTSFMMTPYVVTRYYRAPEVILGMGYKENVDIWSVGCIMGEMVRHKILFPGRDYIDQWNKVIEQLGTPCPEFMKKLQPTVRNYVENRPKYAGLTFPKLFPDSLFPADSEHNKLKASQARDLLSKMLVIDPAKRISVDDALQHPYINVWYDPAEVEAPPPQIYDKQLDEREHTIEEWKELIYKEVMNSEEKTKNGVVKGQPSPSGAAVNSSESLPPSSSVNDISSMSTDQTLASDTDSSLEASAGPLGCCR

Leucine aminopeptidase = target: T2, Leucine aminopeptidase (Plasmodium falciparum 3D7, UniProt Q8IL11); test: P. falciparum M17LAP inhibitors, primary screen, biochemical, fluorogenic H-Leu-NHMec substrate, 1536-well (AID 1619); format: functional
T2 sequence (Q8IL11 whole entry): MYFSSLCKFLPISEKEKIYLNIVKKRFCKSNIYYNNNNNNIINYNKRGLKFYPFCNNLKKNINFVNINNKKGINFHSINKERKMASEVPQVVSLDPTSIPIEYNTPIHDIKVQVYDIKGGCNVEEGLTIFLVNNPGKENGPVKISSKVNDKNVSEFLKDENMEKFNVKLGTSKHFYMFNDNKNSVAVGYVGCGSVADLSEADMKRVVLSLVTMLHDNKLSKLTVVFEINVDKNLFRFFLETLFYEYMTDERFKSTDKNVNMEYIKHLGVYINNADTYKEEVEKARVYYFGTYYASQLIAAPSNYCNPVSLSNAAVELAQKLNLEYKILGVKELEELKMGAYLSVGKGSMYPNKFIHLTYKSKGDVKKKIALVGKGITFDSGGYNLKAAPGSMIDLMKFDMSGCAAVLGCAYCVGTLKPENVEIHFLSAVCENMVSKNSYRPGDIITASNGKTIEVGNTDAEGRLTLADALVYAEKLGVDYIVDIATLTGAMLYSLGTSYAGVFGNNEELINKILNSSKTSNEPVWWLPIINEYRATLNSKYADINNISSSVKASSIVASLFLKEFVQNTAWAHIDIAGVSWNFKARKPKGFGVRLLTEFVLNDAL

Caspase-6 = target: T3, Caspase-6 (Homo sapiens, UniProt P55212); test: human caspase-6 inhibitors, dose response, biochemical, VEID-R110 fluorescence, cherry-pick (AID 720632)
T3 sequence (P55212 whole entry): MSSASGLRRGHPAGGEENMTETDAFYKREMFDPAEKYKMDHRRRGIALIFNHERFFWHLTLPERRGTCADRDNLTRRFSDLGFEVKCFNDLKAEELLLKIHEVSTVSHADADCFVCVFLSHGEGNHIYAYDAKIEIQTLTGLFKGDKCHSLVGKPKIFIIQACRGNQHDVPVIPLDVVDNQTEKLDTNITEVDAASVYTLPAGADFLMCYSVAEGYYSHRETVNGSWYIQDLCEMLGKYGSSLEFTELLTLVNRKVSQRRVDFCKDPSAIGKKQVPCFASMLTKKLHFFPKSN

[17] = target: T4, Tyrosyl-DNA phosphodiesterase 2 (Homo sapiens, UniProt O95551); test: human TDP2 enzyme inhibitors, dose response, biochemical, epi absorbance, IC50 (AID 743297)
T4 sequence (O95551 whole entry): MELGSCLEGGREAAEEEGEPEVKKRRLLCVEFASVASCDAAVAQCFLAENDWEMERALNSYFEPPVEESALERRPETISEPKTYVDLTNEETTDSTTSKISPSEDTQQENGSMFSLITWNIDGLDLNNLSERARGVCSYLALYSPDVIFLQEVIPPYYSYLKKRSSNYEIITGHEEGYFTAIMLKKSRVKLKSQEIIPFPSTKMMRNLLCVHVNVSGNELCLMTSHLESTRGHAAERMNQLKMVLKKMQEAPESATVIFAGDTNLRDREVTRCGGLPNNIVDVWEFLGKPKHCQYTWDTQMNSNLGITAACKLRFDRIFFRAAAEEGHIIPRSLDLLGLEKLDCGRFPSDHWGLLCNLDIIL

[18] = target: T5, Histone-lysine N-methyltransferase NSD2 (Homo sapiens, UniProt O96028); format: biochemical
T5 sequence (O96028 whole entry): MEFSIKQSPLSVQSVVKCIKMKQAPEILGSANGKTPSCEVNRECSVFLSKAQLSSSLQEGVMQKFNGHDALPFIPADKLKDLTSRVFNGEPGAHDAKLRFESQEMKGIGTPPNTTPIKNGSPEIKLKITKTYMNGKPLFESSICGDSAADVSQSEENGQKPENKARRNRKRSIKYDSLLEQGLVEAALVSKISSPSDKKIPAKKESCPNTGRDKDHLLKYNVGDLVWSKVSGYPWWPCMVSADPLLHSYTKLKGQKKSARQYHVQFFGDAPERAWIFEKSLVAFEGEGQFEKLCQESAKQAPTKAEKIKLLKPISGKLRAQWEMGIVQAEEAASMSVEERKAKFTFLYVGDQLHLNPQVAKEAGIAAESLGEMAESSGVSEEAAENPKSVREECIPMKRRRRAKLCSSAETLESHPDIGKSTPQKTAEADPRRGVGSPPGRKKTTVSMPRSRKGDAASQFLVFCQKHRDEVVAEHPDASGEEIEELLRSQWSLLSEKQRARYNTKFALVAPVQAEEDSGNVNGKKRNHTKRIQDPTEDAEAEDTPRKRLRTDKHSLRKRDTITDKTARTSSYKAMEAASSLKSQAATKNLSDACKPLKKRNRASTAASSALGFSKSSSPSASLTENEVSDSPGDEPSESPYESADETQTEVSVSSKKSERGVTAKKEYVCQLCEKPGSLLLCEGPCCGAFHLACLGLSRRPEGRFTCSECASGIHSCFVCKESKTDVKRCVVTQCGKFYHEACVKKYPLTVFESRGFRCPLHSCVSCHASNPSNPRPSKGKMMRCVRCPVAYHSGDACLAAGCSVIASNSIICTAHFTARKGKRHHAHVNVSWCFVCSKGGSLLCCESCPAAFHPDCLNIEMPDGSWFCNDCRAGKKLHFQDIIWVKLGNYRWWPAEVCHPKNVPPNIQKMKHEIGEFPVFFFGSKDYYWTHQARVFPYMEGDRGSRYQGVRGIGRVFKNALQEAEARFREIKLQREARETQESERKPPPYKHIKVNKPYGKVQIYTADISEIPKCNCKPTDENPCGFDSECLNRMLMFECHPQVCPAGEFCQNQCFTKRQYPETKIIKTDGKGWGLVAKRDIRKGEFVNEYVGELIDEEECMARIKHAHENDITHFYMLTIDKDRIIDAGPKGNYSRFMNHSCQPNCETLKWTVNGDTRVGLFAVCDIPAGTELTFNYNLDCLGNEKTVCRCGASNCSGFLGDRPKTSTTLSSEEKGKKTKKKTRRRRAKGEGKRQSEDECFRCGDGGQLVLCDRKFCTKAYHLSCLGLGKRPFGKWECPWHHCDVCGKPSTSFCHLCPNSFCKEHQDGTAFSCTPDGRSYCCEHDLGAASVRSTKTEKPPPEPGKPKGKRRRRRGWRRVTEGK

Streptococcus = test: Group A Streptococcus viability loss, dose response, counter-screen for streptokinase expression inhibitor project, luminescence, BacTiterGlo (AID 1915); format: functional, organism-based;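 note: potency for reduction of bacterial viability or growth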
cells [19] = format: functional, cell-based
cells [20] = format: functional, cell-based; remark: listed apart in the source
[21] = test system: Streptococcus sp. 'group A'; test: growth inhibition of control SK(-) GAS strain, dose response, counter-screen for streptokinase expression inhibitor project, luminescence, kanamycin, BacTiterGlo, confirmation (AID 1900); format: functional, organism-based

SMILES: COc1ccc(/C(C#N)=C2C=C/C(=N/O)C=C/2)cc1
- EC50 (H4): 17.6 µM (active)
- IC50 [1]: 93 µM (active)
- AC50 [2]: 5.88 µM (active)
- CC50 [3]: 89.3 µM (active)
- CC50 [4]: 13 µM (active)
- EC50 [5]: 14.5 µM (active)
- CC50 [6]: 13.3 µM (active)
- AC50 [7]: 4.64 µM (active)
- EC50 [8]: 16.7 µM (active)
- IC50 (cells [9]): 44.8 µM (active)

SMILES: O=C1CC(c2ccc3c(c2)OCO3)Sc2nc3ccccc3n21 (stereo not drawn)
- AC50 [10]: > 52 µM (inactive)
- AC50 [11]: 13.1 µM (active)
- AC50 [12]: 11.2 µM (active)

SMILES: CCCCCCn1c(=O)c(C(=O)Nc2ncccc2O)c(O)c2ccccc21
- EC50 [13]: 10.7 µM (active)
- EC50 [14]: 9.12 µM (active)
- IC50 (Albumin): > 94.2 µM (inactive)
- EC50 [15]: 22.7 µM (active)

SMILES: O=S(=O)(c1ccc2c(c1)OCCO2)N1CCC(n2cnc3cc(F)ccc32)CC1
- IC50 [16]: 49.4 µM (not active)

SMILES: CCOc1ccc(NC(=O)CN2C(=O)C3CCCN3C2=O)cc1 (stereo not drawn)
- IC50 [16]: > 93.1 µM (not active)
- IC50 (Leucine aminopeptidase): 3.23 µM (active)

SMILES: O=C(Cn1cnc([N+](=O)[O-])n1)c1ccc(O)c(O)c1
- AC50 (Caspase-6): 43.9 µM (active)

SMILES: CC(=O)N1CCn2c3c(c(=O)c4cc(C)ccc42)CCC31 (stereo not drawn)
- IC50 [17]: 43.5 µM (inactive)
- AC50 [18]: 7.99 µM (active)

SMILES: Cc1nc2ccccc2c(=O)n1/N=C/c1cc(Br)cc(Br)c1O
- EC50 (Streptococcus): 8.18 µM (active)
- EC50 (cells [19]): > 350 µM (not active)
- EC50 (cells [20]): > 350 µM (not active)
- IC50 (Albumin): > 94.1 µM (inactive)
- EC50 [21]: 5.09 µM (active)
